In patent US9828407B2, “Water soluble and activable phenolic derivatives with dermocosmetic and therapeutic applications and process for preparing said derivatives” (LIBRAGEN, priority 2006, dated 2017):
Values joined by “and” are separate entries in the source; they are usually repeats but may differ in a detail not shown here. Equal entries are not always repeated. Where two headings read alike, the source gives them in different places. Blank lines part the entries; values can stand above or below the compound they belong to.

Experiments:
Solubility in water = type: physicochemical; conditions: 25° C.
[1] = background statement; cited from earlier work
[2] = system: α-glucosidase (from Saccharomyces cerevisiae); experiment: Activation (hydrolysis) of Taxifolin glucoside by an α-glucosidase preparation; type: biochemical; conditions: 18 hours, 30° C., potassium phosphate buffer 0.1 M
Description: The reaction media were analysed by HPLC (method 2) after a 2-fold dilution of an aliquot with methanol.

solubility (Solubility in water): 1190 µg/mL and 3910 µM
Compound: O=C1c2c(O)cc(O)cc2OC(c2ccc(O)c(O)c2)C1O (centres unmarked) [Taxifolin, 3,5,7,3′,4′-pentahydroxyflavanone]
solubility in aqueous solution [1]: around 1 g/l

Compound: taxifolin O-α-glucoside [Taxifolin glucoside]
conversion of Taxifolin glucoside in the presence of the α-glucosidase enzyme ([2]; pH 7.3): totally converted into Taxifolin | stability of Taxifolin glucoside in the medium without α-glucosidase enzyme ([2]; pH 7.3, no enzyme): remained unchanged | colour or odour changes on storage (4° C., 22° C., 37° C. and 45° C., 4 months): No colour or odour changes | Measured quantity of taxifolin glucoside (in % of the initial quantity) (day 0, stored at +4° C.): 100% | Measured quantity of taxifolin glucoside (in % of the initial quantity) (day 0, stored at +22° C.): 100% | Measured quantity of taxifolin glucoside (in % of the initial quantity) (day 0, stored at +37° C.): 100% | Measured quantity of taxifolin glucoside (in % of the initial quantity) (day 0, stored at +45° C.): 100% | Measured quantity of taxifolin glucoside (in % of the initial quantity) (day 9, stored at +4° C.): 100% | Measured quantity of taxifolin glucoside (in % of the initial quantity) (day 9, stored at +22° C.): 100% | Measured quantity of taxifolin glucoside (in % of the initial quantity) (day 9, stored at +37° C.): 100% | Measured quantity of taxifolin glucoside (in % of the initial quantity) (day 9, stored at +45° C.): 100% | Measured quantity of taxifolin glucoside (in % of the initial quantity) (day 23, stored at +4° C.): 100% | Measured quantity of taxifolin glucoside (in % of the initial quantity) (day 23, stored at +22° C.): 100% | Measured quantity of taxifolin glucoside (in % of the initial quantity) (day 23, stored at +37° C.): 100% | Measured quantity of taxifolin glucoside (in % of the initial quantity) (day 23, stored at +45° C.): 91% | Measured quantity of taxifolin glucoside (in % of the initial quantity) (day 37, stored at +4° C.): 100% | Measured quantity of taxifolin glucoside (in % of the initial quantity) (day 37, stored at +22° C.): 100% | Measured quantity of taxifolin glucoside (in % of the initial quantity) (day 37, stored at +37° C.): 100% | Measured quantity of taxifolin glucoside (in % of the initial quantity) (day 37, stored at +45° C.): 94% | Measured quantity of taxifolin glucoside (in % of the initial quantity) (day 63, stored at +4° C.): 100% | Measured quantity of taxifolin glucoside (in % of the initial quantity) (day 63, stored at +22° C.): 95% | Measured quantity of taxifolin glucoside (in % of the initial quantity) (day 63, stored at +37° C.): 96% | Measured quantity of taxifolin glucoside (in % of the initial quantity) (day 63, stored at +45° C.): 79% | Measured quantity of taxifolin glucoside (in % of the initial quantity) (day 118, stored at +4° C.): 100% | Measured quantity of taxifolin glucoside (in % of the initial quantity) (day 118, stored at +22° C.): 100% | Measured quantity of taxifolin glucoside (in % of the initial quantity) (day 118, stored at +37° C.): 91% | Measured quantity of taxifolin glucoside (in % of the initial quantity) (day 118, stored at +45° C.): 73%
